± gives the standard deviation of the averaged measurements.
Key:
ETOPOSIDE = compound: COc1cc([C@@H]2c3cc4c(cc3[C@@H](O[C@@H]3O[C@@H]5CO[C@@H](C)O[C@H]5[C@H](O)[C@H]3O)[C@H]3COC(=O)[C@H]23)OCO4)cc(OC)c1O [ETOPOSIDE]; assay: surviving fraction relative to DMSO-only wells; higher = less growth inhibition; details: exposure time: 5 days
In short: (§1)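 For each tumour cell line, log-phase cells were put into 384-well plates at 250–500 cells per well, then after 24 hours exposed continuously for five days to inhibitors at 0.5, 1, 5, 10, 50, 100, 500 and 1000 nM. Viability was assessed by CellTiter-Glo luminescence, with surviving fraction expressed relative to the median of DMSO-only wells. Lines were screened three times and retained only if replicate Pearson r exceeded 0.7 and median Z' exceeded 0.3.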

MK2206 = compound: NC1(c2ccc(-c3nc4ccn5c(=O)[nH]nc5c4cc3-c3ccccc3)cc2)CCC1 [MK2206]; assay: as above; details: exposure time: 5 days
In short: as §1

SG27 HEADNECK
surviving fraction (ETOPOSIDE; 0.5 nM): 1.12 ± 0.081
surviving fraction (ETOPOSIDE; 1 nM): 1.05 ± 0.11
surviving fraction (ETOPOSIDE; 5 nM): 0.975 ± 0.12
surviving fraction (ETOPOSIDE; 10 nM): 1.05 ± 0.14
surviving fraction (ETOPOSIDE; 50 nM): 1.08 ± 0.15
surviving fraction (ETOPOSIDE; 100 nM): 1.04 ± 0.037
surviving fraction (ETOPOSIDE; 500 nM): 1.09 ± 0.14
surviving fraction (ETOPOSIDE; 1000 nM): 0.985 ± 0.14
surviving fraction (MK2206; 0.5 nM): 1.15 ± 0.065
surviving fraction (MK2206; 1 nM): 1.17 ± 0.066
surviving fraction (MK2206; 5 nM): 1.07 ± 0.056
surviving fraction (MK2206; 10 nM): 1.05 ± 0.089
surviving fraction (MK2206; 50 nM): 0.843 ± 0.18
surviving fraction (MK2206; 100 nM): 0.949 ± 0.12
surviving fraction (MK2206; 500 nM): 0.948 ± 0.043
surviving fraction (MK2206; 1000 nM): 0.932 ± 0.042

SG28 HEADNECK
surviving fraction (ETOPOSIDE; 0.5 nM): 1.18 ± 0.046
surviving fraction (ETOPOSIDE; 1 nM): 1.19 ± 0.063
surviving fraction (ETOPOSIDE; 5 nM): 1.13 ± 0.075
surviving fraction (ETOPOSIDE; 10 nM): 1.15 ± 0.044
surviving fraction (ETOPOSIDE; 50 nM): 1.07 ± 0.2
surviving fraction (ETOPOSIDE; 100 nM): 1.09 ± 0.093
surviving fraction (ETOPOSIDE; 500 nM): 1.05 ± 0.029
surviving fraction (ETOPOSIDE; 1000 nM): 0.969 ± 0.11
surviving fraction (MK2206; 0.5 nM): 1 ± 0.1
surviving fraction (MK2206; 1 nM): 1.16 ± 0.013
surviving fraction (MK2206; 5 nM): 1.02 ± 0.14
surviving fraction (MK2206; 10 nM): 1.05 ± 0.12
surviving fraction (MK2206; 50 nM): 0.864 ± 0.061
surviving fraction (MK2206; 100 nM): 0.852 ± 0.1
surviving fraction (MK2206; 500 nM): 0.634 ± 0.0078
surviving fraction (MK2206; 1000 nM): 0.719 ± 0.059

SG31 HEADNECK
surviving fraction (ETOPOSIDE; 0.5 nM): 1.05 ± 0.092
surviving fraction (ETOPOSIDE; 1 nM): 1.06 ± 0.04
surviving fraction (ETOPOSIDE; 5 nM): 1.1 ± 0.11
surviving fraction (ETOPOSIDE; 10 nM): 1.13 ± 0.14
surviving fraction (ETOPOSIDE; 50 nM): 0.946 ± 0.11
surviving fraction (ETOPOSIDE; 100 nM): 0.969 ± 0.11
surviving fraction (ETOPOSIDE; 500 nM): 0.856 ± 0.087
surviving fraction (ETOPOSIDE; 1000 nM): 0.837 ± 0.058
surviving fraction (MK2206; 0.5 nM): 1.24 ± 0.29
surviving fraction (MK2206; 1 nM): 0.996 ± 0.022
surviving fraction (MK2206; 5 nM): 1.1 ± 0.28
surviving fraction (MK2206; 10 nM): 1.19 ± 0.2
surviving fraction (MK2206; 50 nM): 0.945 ± 0.16
surviving fraction (MK2206; 100 nM): 0.916 ± 0.2
surviving fraction (MK2206; 500 nM): 0.901 ± 0.13
surviving fraction (MK2206; 1000 nM): 0.88 ± 0.12

SG32 HEADNECK
surviving fraction (ETOPOSIDE; 0.5 nM): 1.23 ± 0.076
surviving fraction (ETOPOSIDE; 1 nM): 1.3 ± 0.13
surviving fraction (ETOPOSIDE; 5 nM): 1.37 ± 0.11
surviving fraction (ETOPOSIDE; 10 nM): 1.2 ± 0.17
surviving fraction (ETOPOSIDE; 50 nM): 1.1 ± 0.098
surviving fraction (ETOPOSIDE; 100 nM): 1 ± 0.14
surviving fraction (ETOPOSIDE; 500 nM): 0.726 ± 0.042
surviving fraction (ETOPOSIDE; 1000 nM): 0.608 ± 0.11
surviving fraction (MK2206; 0.5 nM): 1.04 ± 0.053
surviving fraction (MK2206; 1 nM): 0.975 ± 0.3
surviving fraction (MK2206; 5 nM): 1.08 ± 0.24
surviving fraction (MK2206; 10 nM): 1.17 ± 0.19
surviving fraction (MK2206; 50 nM): 1.51 ± 0.17
surviving fraction (MK2206; 100 nM): 1.08 ± 0.13
surviving fraction (MK2206; 500 nM): 0.964 ± 0.073
surviving fraction (MK2206; 1000 nM): 0.83 ± 0.1

SG43 HEADNECK
surviving fraction (ETOPOSIDE; 0.5 nM): 1.02 ± 0.13
surviving fraction (ETOPOSIDE; 1 nM): 1.02 ± 0.21
surviving fraction (ETOPOSIDE; 5 nM): 0.933 ± 0.24
surviving fraction (ETOPOSIDE; 10 nM): 0.832 ± 0.23
surviving fraction (ETOPOSIDE; 50 nM): 0.876 ± 0.031
surviving fraction (ETOPOSIDE; 100 nM): 0.645 ± 0.11
surviving fraction (ETOPOSIDE; 500 nM): 0.894 ± 0.07
surviving fraction (ETOPOSIDE; 1000 nM): 0.644 ± 0.064
surviving fraction (MK2206; 0.5 nM): 1.19 ± 0.62
surviving fraction (MK2206; 1 nM): 0.92 ± 0.097
surviving fraction (MK2206; 5 nM): 0.894 ± 0.2
surviving fraction (MK2206; 10 nM): 0.741 ± 0.14
surviving fraction (MK2206; 50 nM): 0.653 ± 0.19
surviving fraction (MK2206; 100 nM): 0.505 ± 0.073
surviving fraction (MK2206; 500 nM): 0.465 ± 0.17
surviving fraction (MK2206; 1000 nM): 0.317 ± 0.089

SIHA CERVIX
surviving fraction (ETOPOSIDE; 0.5 nM): 1.07 ± 0.041
surviving fraction (ETOPOSIDE; 1 nM): 1.036 ± 0.0067
surviving fraction (ETOPOSIDE; 5 nM): 1.08 ± 0.12
surviving fraction (ETOPOSIDE; 10 nM): 1.11 ± 0.069
surviving fraction (ETOPOSIDE; 50 nM): 1.12 ± 0.049
surviving fraction (ETOPOSIDE; 100 nM): 1.16 ± 0.11
surviving fraction (ETOPOSIDE; 500 nM): 0.863 ± 0.058
surviving fraction (ETOPOSIDE; 1000 nM): 0.684 ± 0.018
surviving fraction (MK2206; 0.5 nM): 0.989 ± 0.041
surviving fraction (MK2206; 1 nM): 1 ± 0.043
surviving fraction (MK2206; 5 nM): 1.02 ± 0.092
surviving fraction (MK2206; 10 nM): 1.04 ± 0.062
surviving fraction (MK2206; 50 nM): 0.8803 ± 0.0068
surviving fraction (MK2206; 100 nM): 0.876 ± 0.031
surviving fraction (MK2206; 500 nM): 0.731 ± 0.013
surviving fraction (MK2206; 1000 nM): 0.719 ± 0.021

SJSA1 BONE
surviving fraction (ETOPOSIDE; 0.5 nM): 1.04 ± 0.022
surviving fraction (ETOPOSIDE; 1 nM): 1.04 ± 0.058
surviving fraction (ETOPOSIDE; 5 nM): 1.06 ± 0.036
surviving fraction (ETOPOSIDE; 10 nM): 1.01 ± 0.024
surviving fraction (ETOPOSIDE; 50 nM): 1.05 ± 0.03
surviving fraction (ETOPOSIDE; 100 nM): 1.02 ± 0.076
surviving fraction (ETOPOSIDE; 500 nM): 0.71 ± 0.0095
surviving fraction (ETOPOSIDE; 1000 nM): 0.503 ± 0.0085
surviving fraction (MK2206; 0.5 nM): 0.752 ± 0.027
surviving fraction (MK2206; 1 nM): 0.825 ± 0.033
surviving fraction (MK2206; 5 nM): 0.907 ± 0.028
surviving fraction (MK2206; 10 nM): 0.804 ± 0.032
surviving fraction (MK2206; 50 nM): 1.66 ± 0.096
surviving fraction (MK2206; 100 nM): 1.7 ± 0.048
surviving fraction (MK2206; 500 nM): 1.66 ± 0.13
surviving fraction (MK2206; 1000 nM): 1.71 ± 0.15

SKBR3 BREAST
surviving fraction (ETOPOSIDE; 0.5 nM): 1.07 ± 0.027
surviving fraction (ETOPOSIDE; 1 nM): 1.06 ± 0.099
surviving fraction (ETOPOSIDE; 5 nM): 1.1 ± 0.15
surviving fraction (ETOPOSIDE; 10 nM): 1.03 ± 0.12
surviving fraction (ETOPOSIDE; 50 nM): 1.12 ± 0.11
surviving fraction (ETOPOSIDE; 100 nM): 1.05 ± 0.084
surviving fraction (ETOPOSIDE; 500 nM): 0.66 ± 0.068
surviving fraction (ETOPOSIDE; 1000 nM): 0.478 ± 0.12
surviving fraction (MK2206; 0.5 nM): 0.983 ± 0.076
surviving fraction (MK2206; 1 nM): 1.01 ± 0.16
surviving fraction (MK2206; 5 nM): 0.942 ± 0.085
surviving fraction (MK2206; 10 nM): 0.911 ± 0.032
surviving fraction (MK2206; 50 nM): 0.724 ± 0.067
surviving fraction (MK2206; 100 nM): 0.581 ± 0.028
surviving fraction (MK2206; 500 nM): 0.368 ± 0.02
surviving fraction (MK2206; 1000 nM): 0.337 ± 0.015

SNU475 LIVER
surviving fraction (ETOPOSIDE; 0.5 nM): 1.02 ± 0.05
surviving fraction (ETOPOSIDE; 1 nM): 0.999 ± 0.11
surviving fraction (ETOPOSIDE; 5 nM): 1 ± 0.039
surviving fraction (ETOPOSIDE; 10 nM): 1.03 ± 0.042
surviving fraction (ETOPOSIDE; 50 nM): 0.9937 ± 0.0049
surviving fraction (ETOPOSIDE; 100 nM): 0.957 ± 0.066
surviving fraction (ETOPOSIDE; 500 nM): 0.835 ± 0.042
surviving fraction (ETOPOSIDE; 1000 nM): 0.571 ± 0.062
surviving fraction (MK2206; 0.5 nM): 0.973 ± 0.037
surviving fraction (MK2206; 1 nM): 1.04 ± 0.053
surviving fraction (MK2206; 5 nM): 1.01 ± 0.027
surviving fraction (MK2206; 10 nM): 0.983 ± 0.043
surviving fraction (MK2206; 50 nM): 0.9 ± 0.024
surviving fraction (MK2206; 100 nM): 0.891 ± 0.018
surviving fraction (MK2206; 500 nM): 0.767 ± 0.03
surviving fraction (MK2206; 1000 nM): 0.653 ± 0.1

SUM44 BREAST
surviving fraction (ETOPOSIDE; 0.5 nM): 1.03 ± 0.026
surviving fraction (ETOPOSIDE; 1 nM): 1.05 ± 0.034
surviving fraction (ETOPOSIDE; 5 nM): 1.05 ± 0.046
surviving fraction (ETOPOSIDE; 10 nM): 1.06 ± 0.027
surviving fraction (ETOPOSIDE; 50 nM): 1.09 ± 0.043
surviving fraction (ETOPOSIDE; 100 nM): 1.11 ± 0.062
surviving fraction (ETOPOSIDE; 500 nM): 0.928 ± 0.082
surviving fraction (ETOPOSIDE; 1000 nM): 0.913 ± 0.036
surviving fraction (MK2206; 0.5 nM): 1.09 ± 0.17
surviving fraction (MK2206; 1 nM): 1.19 ± 0.28
surviving fraction (MK2206; 5 nM): 1.14 ± 0.24
surviving fraction (MK2206; 10 nM): 1.22 ± 0.31
surviving fraction (MK2206; 50 nM): 0.993 ± 0.051
surviving fraction (MK2206; 100 nM): 1.13 ± 0.21
surviving fraction (MK2206; 500 nM): 1.02 ± 0.18
surviving fraction (MK2206; 1000 nM): 1.09 ± 0.34
